Test results reported in patent US6825230B2, “Spiro and dispiro 1,2,4-trixolane antimalarials” (Medicines for Malaria Venture MMV, priority 2002, dated 2004).
Values after ≈ are worked out from the molar mass of the structure shown. Where two headings read alike, the source gives them in different places.

How the values were obtained:
[1] = system: Schistosoma mansoni adult worms (49-day-old); assay: Effect on adult schistosomes (49-day-old) in infected mice; assay type: in vivo; settings: single 400 mg/kg per os; for % reduction of adult worms growth at day 49 after per os application of 400 mg/kg, TWR (%): 49-day-old adults, total worm reduction rate; for Adult worms day 49, per os 400 mg/kg, DEAD WORM (%): percentage of dead worm in the liver
Experimental: Mice were infected with 100 Schistosoma mansoni cercariae on day 49 post-treatment. Each group was treated per os with OZ compounds at single doses of 200, 400, and 600 mg/kg. Untreated mice served as the control. All groups were killed 4 weeks after treatment and the liver and intestine were removed and separated. The liver and intestine were compressed and alive male and female worms could be seen and counted.

[2] = system: ANKA strain of P. berghei; assay: Single dose STI in vivo screen in infected mice; design: species or system Plasmodium berghei; settings: for Survival (days) 10 mg/kg po: single 10 mg/kg po in 3% ethanol and 7% Tween 80; for Survival (days) 10 mg/kg po / Survival (days) 10 mg/kg SSV po / Survival (days) 10 mg/kg sc: untreated 6-7 days; for Activity (%) 10 mg/kg po: single 10 mg/kg po in 3% ethanol and 7% Tween 80 on day 1 post-infection; for Activity (%) 10 mg/kg po / Activity (%) 10 mg/kg SSV po / Activity (%) 10 mg/kg sc: percent reduction in parasitemia on day 3; for Survival (days) 10 mg/kg SSV po: single 10 mg/kg po in SSV; for Activity (%) 10 mg/kg SSV po: single 10 mg/kg po in standard suspending vehicle (SSV) on day 1 post-infection; for Survival (days) 10 mg/kg sc: single 10 mg/kg sc in 3% ethanol and 7% Tween 80; for Activity (%) 10 mg/kg sc: single 10 mg/kg sc in 3% ethanol and 7% Tween 80 on day 1 post-infection
[3] = system: chloroquine-resistant K1 strain of P. falciparum; assay: In vitro antimalarial semiautomated microdilution assay ([3H]-hypoxanthine incorporation), K1 strain; assay type: cell-based, Plasmodium falciparum; settings: Plasmodium falciparum
In short: (§1)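 IC50 comes from Logit regression of [3H]-hypoxanthine incorporation data. Intraerythrocytic P. falciparum taken from asynchronous stock cultures is exposed to OZ compounds in a semiautomated microdilution format.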

[4] = system: chloroquine-sensitive NF54 strain of P. falciparum; assay: In vitro antimalarial semiautomated microdilution assay ([3H]-hypoxanthine incorporation), NF54 strain; assay type: cell-based, Plasmodium falciparum; settings: Plasmodium falciparum
In short: as §1

[5] = K1, 72 h, read-out: IC50 (ng/ml) K1, chloroquine-resistant K1 strain, 72 h incubation

With `Clc1ccc(C2(c3ccc(Cl)cc3)OOC3(O2)C2CC4CC(C2)CC3C4)cc1` (stereo not drawn) [OZ43] the “% reduction of adult worms growth at day 49 after per os application of 400 mg/kg, TWR (%)” value [1] was 1% and the “Adult worms day 49, per os 400 mg/kg, DEAD WORM (%)” value [1] was 0%.
In the case of `CC(=O)N1CCC2(CC1)OOC1(O2)C2CC3CC(C2)CC1C3` (stereo not drawn) [OZ49], the “% reduction of adult worms growth at day 49 after per os application of 400 mg/kg, TWR (%)” value [1] is reported as 17% and the “Adult worms day 49, per os 400 mg/kg, DEAD WORM (%)” value [1] is reported as 10%.
In the case of `O=S1(=O)CCC2(CC1)OOC1(O2)C2CC3CC(C2)CC1C3` (stereo not drawn) [OZ50], the “% reduction of adult worms growth at day 49 after per os application of 400 mg/kg, TWR (%)” value [1] is reported as 12% and the “Adult worms day 49, per os 400 mg/kg, DEAD WORM (%)” value [1] is reported as 4%.
For `CCOC(=O)CC1CCC2(CC1)OOC1(O2)C2CC3CC(C2)CC1C3` (stereo not drawn) [OZ61], the “% reduction of adult worms growth at day 49 after per os application of 400 mg/kg, TWR (%)” value [1] was 8% and the “Adult worms day 49, per os 400 mg/kg, DEAD WORM (%)” value [1] was 21%.
For `c1ccc(C2CCC3(CC2)OOC2(O3)C3CCCC2CCC3)cc1` (stereo not drawn) [OZ67], the “% reduction of adult worms growth at day 49 after per os application of 400 mg/kg, TWR (%)” value [1] was 38% and the “Adult worms day 49, per os 400 mg/kg, DEAD WORM (%)” value [1] was 0%.
`CC1(C)COC2(CCC3(CC2)OOC2(O3)C3CCCC2CCC3)OC1` (stereo not drawn) [OZ68] was tested, and the “% reduction of adult worms growth at day 49 after per os application of 400 mg/kg, TWR (%)” value [1] was 17% and the “Adult worms day 49, per os 400 mg/kg, DEAD WORM (%)” value [1] was 0%.
For `O=C(O)C1CCC2(CC1)OOC1(O2)C2CC3CC(C2)CC1C3` (stereo not drawn) [OZ72], the “% reduction of adult worms growth at day 49 after per os application of 400 mg/kg, TWR (%)” value [1] was 0% and the “Adult worms day 49, per os 400 mg/kg, DEAD WORM (%)” value ([1]; listed as OZ 72) was 10%.
In the case of `OC1(c2ccc(F)cc2)CCC2(CC1)OOC1(O2)C2CC3CC(C2)CC1C3` (stereo not drawn) [OZ76], the “% reduction of adult worms growth at day 49 after per os application of 400 mg/kg, TWR (%)” value [1] is reported as 32% and the “Adult worms day 49, per os 400 mg/kg, DEAD WORM (%)” value [1] is reported as 0%.
For `CCS(=O)(=O)N1CCC2(CC1)OOC1(O2)C2CC3CC(C2)CC1C3` (stereo not drawn) [OZ79], the “% reduction of adult worms growth at day 49 after per os application of 400 mg/kg, TWR (%)” value [1] was 4% and the “Adult worms day 49, per os 400 mg/kg, DEAD WORM (%)” value [1] was 0%.
In the case of `c1ccc(C2(c3ccccn3)OOC3(O2)C2CC4CC(C2)CC3C4)nc1` (stereo not drawn) [OZ81], the “% reduction of adult worms growth at day 49 after per os application of 400 mg/kg, TWR (%)” value [1] is reported as 28% and the “Adult worms day 49, per os 400 mg/kg, DEAD WORM (%)” value [1] is reported as 0%.
With `O=C(CO)N1CCC2(CC1)OOC1(O2)C2CC3CC(C2)CC1C3` (stereo not drawn) [OZ83] the “% reduction of adult worms growth at day 49 after per os application of 400 mg/kg, TWR (%)” value [1] was 7% and the “Adult worms day 49, per os 400 mg/kg, DEAD WORM (%)” value [1] was 19%.
With `O=[N+]([O-])c1cccc(C2(c3cccc([N+](=O)[O-])c3)OOC3(O2)C2CC4CC(C2)CC3C4)c1` (stereo not drawn) [OZ105, Adamantane-2-spiro-3′-5′,5′-bis(3′-nitrophenyl)-1′,2′,4′-trioxolane] the “Survival (days) 10 mg/kg po” value [2] was 5.7 days, the “Activity (%) 10 mg/kg po” value [2] was 16% and the “Survival (days) 10 mg/kg SSV po” value [2] was 5.7 days. For the same molecule, the “Activity (%) 10 mg/kg SSV po” value [2] was 0%, the “Survival (days) 10 mg/kg sc” value [2] was 6.3 days and the “Activity (%) 10 mg/kg sc” value [2] was 28%. The “% reduction of adult worms growth at day 49 after per os application of 400 mg/kg, TWR (%)” value [1] was 8%, the “Adult worms day 49, per os 400 mg/kg, DEAD WORM (%)” value [1] was 0% and the IC50 [3, 5] was 5.4 ng/mL (≈ 12.3 nM).
In the case of `NC(=O)OC1CCC2(CC1)OOC1(O2)C2CC3CC(C2)CC1C3` (stereo not drawn) [OZ107], the “Survival (days) 10 mg/kg po” value [2] is reported as 6.3 days, the “Activity (%) 10 mg/kg po” value [2] is reported as 70% and the “Survival (days) 10 mg/kg SSV po” value [2] is reported as 6.3 days. For the same molecule, the “Activity (%) 10 mg/kg SSV po” value [2] was 32%, the “Survival (days) 10 mg/kg sc” value [2] was 8.0 days and the “Activity (%) 10 mg/kg sc” value [2] was 99.74%. For the same molecule, the IC50 ([4]; NF54, 72 h, read-out: IC50 (ng/ml) NF54, chloroquine-sensitive NF54 strain, 72 h incubation) was 0.3 ng/mL (≈ 0.928 nM), the “% reduction of adult worms growth at day 49 after per os application of 400 mg/kg, TWR (%)” value [1] was 26% and the “Adult worms day 49, per os 400 mg/kg, DEAD WORM (%)” value [1] was 4%. For the same molecule, the IC50 [3, 5] was 1 ng/mL (≈ 3.09 nM).
With `CCN(CC)CC[C@H]1CC[C@]2(CC1)OOC1(O2)C2CC3CC(C2)CC1C3` (stereo partly drawn) [OZ126] the “Survival (days) 10 mg/kg po” value [2] was 7.0 days, the “Activity (%) 10 mg/kg po” value [2] was 55% and the “Survival (days) 10 mg/kg SSV po” value [2] was 6.7 days. For the same molecule, the “Activity (%) 10 mg/kg SSV po” value [2] was 72%, the “Survival (days) 10 mg/kg sc” value [2] was 8.5 days and the “Activity (%) 10 mg/kg sc” value [2] was 99.44%. The IC50 ([4]; chloroquine-sensitive NF54 strain, 72 h incubation, read-out: IC50 (ng/ml) NF54) was 0.5 ng/mL (≈ 1.38 nM), the “% reduction of adult worms growth at day 49 after per os application of 400 mg/kg, TWR (%)” value [1] was 0% and the “Adult worms day 49, per os 400 mg/kg, DEAD WORM (%)” value [1] was 9%. The IC50 ([3]; chloroquine-resistant K1 strain, 72 h incubation, read-out: IC50 (ng/ml) K1) was 0.2 ng/mL (≈ 0.55 nM).
